Measurements: US8088927B2, “Fungicide N-cycloalkyl-benzyl-amide derivatives” (Bayer Cropscience AG, priority 2006, dated 2012)

Assay: log P determination by HPLC on reversed-phase column (C 18), EEC Directive 79/831 Annex V.A8
Format: physicochemical
Method: Temperature: 40° C.; Mobile phases: 0.1% aqueous formic acid and acetonitrile; linear gradient from 10% acetonitrile to 90% acetonitrile.
Calibration was carried out using unbranched alkan-2-ones (comprising 3 to 16 carbon atoms) with known log P values (determination of the log P values by the retention times using linear interpolation between two successive alkanones).

[1] = HPLC on reversed-phase column (C 18)
[2] = HPLC, C 18, 40° C., 0.1% aqueous formic acid and acetonitrile gradient

| Structure (SMILES) | LogP [1] | further results |
| --- | --- | --- |
| Cc1nc(C(F)F)c(C(=O)N(C2CC2)C(C)c2ccc(Cl)cc2Cl)s1 (stereo not drawn) [Compound 173] | 3.9 |  |
| O=C(c1sccc1I)N(Cc1ccc(C(F)(F)F)cc1)C1CC1 [Compound 60] |  | LogP [2]: 4.04 |
| Cn1cc(C(=O)N(Cc2ccc(C(F)(F)F)cc2)C2CC2)c(C(F)(F)F)c1 [Compound 100] |  | LogP [2]: 3.55 |
| Cc1nn(C)c(F)c1C(=O)N(Cc1ccc(Cl)cc1Cl)C1CC1 [Compound 236] | 3.04 |  |
| Cc1cc(C(=O)N(Cc2ccc(Cl)cc2Cl)C2CC2)c(C(F)(F)F)o1 [Compound 12] |  | LogP [2]: 4.6 |
| Cn1cc(C(=O)N(Cc2ccc(C(F)(F)F)cc2)C2CC2)c(C(F)F)n1 [Compound 242] | 2.98 |  |
| CC(c1ccc(Cl)cc1Cl)N(C(=O)c1cn(C)nc1C(F)F)C1CC1 (stereo not drawn) [Compound 245] | 3.31 |  |
| Cn1cc(C(=O)N(Cc2ccc(Cl)cc2Cl)C2CC2)c(C(F)F)n1 [Compound 241] | 3.27 |  |
| COc1nn(C)cc1C(=O)N(Cc1ccc(Cl)cc1Cl)C1CC1 [Compound 251] | 2.81 |  |
| Cn1cc(C(=O)N(Cc2c(Cl)cc(Cl)cc2Cl)C2CC2)c(C(F)F)n1 [Compound 243] | 3.46 |  |
| Cn1cc(C(=O)N(Cc2c(Cl)cc(Cl)cc2Cl)C2CC2)c(I)n1 [Compound 258] | 3.34 |  |
| Cn1cc(C(=O)N(Cc2ccc(Oc3ccccc3)cc2)C2CC2)c(C(F)F)n1 [Compound 244] | 3.37 |  |
| Cn1cc(C(=O)N(Cc2c(Cl)cc(Cl)cc2Cl)C2CC2)c(C(F)(F)F)c1 [Compound 99] |  | LogP [2]: 4.08 |
| Cc1cc(C(=O)N(Cc2ccc(C(F)(F)F)cc2)C2CC2)c(C(F)(F)F)o1 [Compound 16] |  | LogP [2]: 4.18 |
| COc1nn(C)cc1C(=O)N(Cc1c(Cl)cc(Cl)cc1Cl)C1CC1 [Compound 255] | 2.97 |  |
| Cc1nc(C(F)F)c(C(=O)N(Cc2ccc(C(F)(F)F)cc2)C2CC2)s1 [Compound 172] | 3.37 |  |
| Cc1nc(C(F)(F)F)c(C(=O)N(Cc2ccc(Cl)cc2Cl)C2CC2)s1 [Compound 168] | 4.19 |  |
| Cc1nn(C)c(F)c1C(=O)N(Cc1c(Cl)cc(Cl)cc1Cl)C1CC1 [Compound 238] | 3.32 |  |
| CCOc1nn(C)cc1C(=O)N(Cc1ccc(Cl)cc1Cl)C1CC1 [Compound 253] | 3.22 |  |

| Structure (SMILES) | LogP [1] | further results |
| --- | --- | --- |
| Cc1nn(C)c(F)c1C(=O)N(Cc1ccc(C(F)(F)F)cc1)C1CC1 [Compound 237, N-(4-trifluoromethyl-benzyl)-N-cyclopropyl-5-fluoro-1,3-dimethyl-1H-pyrazole-4-carboxamide] | 2.8 | chromatographic logP (reversed-phase HPLC column (C 18), HPLC, C 18, 40° C., 0.1% aqueous formic acid and acetonitrile gradient): 2.8 |
| Cn1cc(C(=O)N(Cc2ccc(Cl)cc2Cl)C2CC2)c(C(F)(F)F)c1 [Compound 98] |  | LogP [2]: 3.88 |
| Cc1occc1C(=O)N(Cc1ccc(C(F)(F)F)cc1)C1CC1 [Compound 15] |  | LogP [2]: 3.43 |
| Cc1occc1C(=O)N(Cc1ccc(Cl)cc1Cl)C1CC1 [Compound 11] |  | LogP [2]: 3.77 |
| Cc1occc1C(=O)N(Cc1c(Cl)cc(Cl)cc1Cl)C1CC1 [Compound 13] |  | LogP [2]: 4.09 |
| Cc1nc(C(F)F)c(C(=O)N(Cc2ccc(Cl)cc2Cl)C2CC2)s1 [Compound 169] | 3.74 |  |
| Cc1nc(C(F)F)c(C(=O)N(C2CC2)C(C#N)c2c(Cl)cccc2Cl)s1 (stereo not drawn) [Compound 213] | 3.14 |  |
| Cn1cc(C(=O)N(Cc2ccc(Cl)cc2Cl)C2CC2)c(I)n1 [Compound 254] | 3.15 |  |
| Cc1cc(C(=O)N(Cc2c(Cl)cc(Cl)cc2Cl)C2CC2)c(C(F)(F)F)o1 [Compound 14] |  | LogP [2]: 4.91 |
| Cc1nc(C(F)F)c(C(=O)N(C2CC2)C(C#N)c2ccc(Cl)cc2Cl)s1 (stereo not drawn) [Compound 209] | 3.61 |  |
| Cn1cc(C(=O)N(Cc2ccc(Cl)cc2Cl)C2CC2)c(C(F)(F)F)n1 [Compound 252] | 3.58 |  |
| O=C(c1sccc1I)N(Cc1c(Cl)cc(Cl)cc1Cl)C1CC1 [Compound 59] |  | LogP [2]: 4.86 |
| O=C(c1sccc1I)N(Cc1ccc(Cl)cc1Cl)C1CC1 [Compound 58] |  | LogP [2]: 4.48 |
| CCOc1nn(C)cc1C(=O)N(Cc1c(Cl)cc(Cl)cc1Cl)C1CC1 [Compound 257] | 3.35 |  |
| Cc1nc(C(F)F)c(C(=O)N(Cc2c(Cl)cc(Cl)cc2Cl)C2CC2)s1 [Compound 171] | 4.1 |  |
| CC(c1ccc(C(F)(F)F)cc1)N(C(=O)c1cn(C)nc1C(F)F)C1CC1 (stereo not drawn) [Compound 246] | 3.27 |  |
| Cc1nc(C(F)(F)F)c(C(=O)N(Cc2c(Cl)cc(Cl)cc2Cl)C2CC2)s1 [Compound 170] | 4.52 |  |
| Cn1cc(C(=O)N(Cc2c(Cl)cc(Cl)cc2Cl)C2CC2)c(C(F)(F)F)n1 [Compound 256] | 3.78 |  |

The next lines start with results.

| LogP [1] | Structure (SMILES) | further results |
| --- | --- | --- |
| 3.19 | Cc1nn(C)c(F)c1C(=O)N(C1CC1)C(C)c1ccc(Cl)cc1Cl (stereo not drawn) [Compound 263] |  |
| 3.29 | Cn1cc(C(=O)N(Cc2ccc(C(F)(F)F)cc2)C2CC2)c(C(F)(F)F)n1 [Compound 260] |  |
| 2.40 | Cn1cnc(C(=O)N(Cc2c(Cl)cc(Cl)cc2Cl)C2CC2)c1 [Compound 503] |  |
| 2.57 | COC(=O)C(c1ccccc1Cl)N(C(=O)c1c(C)nn(C)c1F)C1CC1 (stereo not drawn) [Compound 383] |  |
| 2.83 | COc1nn(C)cc1C(=O)N(C1CC1)C(C)c1ccc(Cl)cc1Cl (stereo not drawn) [Compound 264] |  |
| 2.92 | Cn1cc(C(=O)N(Cc2ccc(C(F)(F)F)cc2)C2CC2)c(I)n1 [Compound 262] |  |
| 2.61 | COc1nn(C)cc1C(=O)N(Cc1ccc(C(F)(F)F)cc1)C1CC1 [Compound 259] |  |
| 2.4 | CCn1nc(C)c(Br)c1C(=O)N(Cc1c(Cl)cc(Cl)cc1Cl)C1CC1 [Compound 541] |  |
| 2.66 | Cc1nn(C)c(F)c1C(=O)N(Cc1cccc(Br)c1)C1CC1 [Compound 412] |  |
| 3.22 | CC(c1ccc(Cl)cc1Cl)N(C(=O)c1cn(C)nc1I)C1CC1 (stereo not drawn) [Compound 266] |  |
| 3.53 | CCC(c1ccc(Cl)cc1Cl)N(C(=O)c1c(C)nn(C)c1F)C1CC1 (stereo not drawn) [Compound 386] |  |
| 2.67 | Cc1nn(C)c(F)c1C(=O)N(Cc1ccc(Br)cc1)C1CC1 [Compound 422] |  |
| 2.96 | COC(c1ccc(Cl)cc1Cl)N(C(=O)c1c(C)nn(C)c1F)C1CC1 (stereo not drawn) [Compound 500] |  |
| 3.15 | Cc1nn(C)c(F)c1C(=O)N(C1CC1)C(C#N)c1ccc(Cl)cc1Cl (stereo not drawn) [Compound 385] |  |
| 3.19 | CCOc1nn(C)cc1C(=O)N(C1CC1)C(C)c1ccc(Cl)cc1Cl (stereo not drawn) [Compound 265] |  |
| 2.92 | CCOc1nn(C)cc1C(=O)N(Cc1ccc(C(F)(F)F)cc1)C1CC1 [Compound 261] |  |
